The source of these data is patent US8501955B2, “Acetamide derivatives as glucokinase activators, their process and medicinal application” (Advinus Therapeutics Private Limited, priority 2007, dated 2013).

SMILES strings stand for the structures.

This assay concerns the target T1, purified human recombinant GK (Homo sapiens, UniProt P35557).
T1 sequence (P35557 1-465): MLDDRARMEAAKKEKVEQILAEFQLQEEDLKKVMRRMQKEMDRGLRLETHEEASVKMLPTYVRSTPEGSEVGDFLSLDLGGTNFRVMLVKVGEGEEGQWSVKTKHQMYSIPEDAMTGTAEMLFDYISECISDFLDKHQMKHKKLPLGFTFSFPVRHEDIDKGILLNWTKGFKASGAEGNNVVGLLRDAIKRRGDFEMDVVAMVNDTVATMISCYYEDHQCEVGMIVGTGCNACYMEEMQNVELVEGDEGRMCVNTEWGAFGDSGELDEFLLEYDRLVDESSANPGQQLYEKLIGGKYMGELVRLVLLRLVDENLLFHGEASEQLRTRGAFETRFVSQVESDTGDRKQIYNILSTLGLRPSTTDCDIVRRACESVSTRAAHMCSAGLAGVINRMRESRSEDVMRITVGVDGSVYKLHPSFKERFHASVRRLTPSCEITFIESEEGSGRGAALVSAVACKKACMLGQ
Nature of the assay: Glucokinase activity assay (coupled enzymatic GK/G6PD assay, NADH absorbance at 340 nm). In kind it is biochemical. The note with it: for EC50: EC50 of % change in S0.5 of glucokinase for glucose, sigmoidal fit, read-out: EC50 (with respect to % ΔS0.5); for Emax: Emax of % change in S0.5, vehicle S0.5 = 0%, 0 mM glucose = 100%, read-out: % Emax (with respect to % ΔS0.5). The source says: The glucokinase (GK) assay is a coupled enzymatic assay. GK catalyzes the first step of glycolysis, the conversion of glucose to glucose-6-phosphate (G6P) in the presence of ATP. G6P in turn is converted by glucose-6-phosphate dehydrogenase (G6PD) to 6-phosphogluconate, a process that requires NAD, resulting in NADH formation. Since the GK-catalyzed step is the rate-limiting step of this coupled enzymatic process, the rate of accumulation of 6-phosphogluconate and NADH is directly proportional to the rate of glucose phosphorylation by GK. The rate of the GK-catalyzed reaction can therefore be measured by monitoring the increase in NADH absorbance at 340 nm.
The assay is carried out according to the protocol outlined in Hariharan et al (1997), Diabetes 46: 11-16. Briefly, the test compounds are incubated in a reaction mix containing 25 mM HEPES (pH 7.2), 10 mM MgCl2, 100 mM KCl, 5 mM ATP, 2 mM DTT, 0.5 mM NAD, 1 U/ml Leuconostoc mesenteroides G6PD, 0.3 U/ml of purified human recombinant GK, and different concentrations of glucose. Enzymatic activity is calculated from the initial reaction velocity, measured from the change in NADH absorbance as a function of time.
Compounds described in formula (I), in concentration ranges from 1.0 nM to […] are tested in the purified human recombinant glucokinase assay described above.
A compound is considered to be a glucokinase activator if it, in its testable range of concentrations, yields a higher rate of glucose phosphorylation than in its absence at a particular glucose concentration, for example at 5 mM glucose.
Compounds of general formula (I) are tested in the in vitro GK enzymatic assay to monitor dose-dependent effect on glucokinase activation (in kinetic mode), as described above, at various glucose concentrations. The S0.5 of glucokinase for glucose at different concentration of each compound of interest is calculated from the following modified version of the Michaelis-Menten equation, V=Vmax[S]^n/(S0.5^n+[S]^n), where [S] is the glucose concentration and n is the Hill coefficient (taken as 1.7 to account for the sigmoidal kinetics of glucokinase with respect to glucose). The S0.5 is plotted against the log of the compound concentration. The change in the S0.5 of glucokinase (ΔS0.5) for glucose is calculated by subtracting the S0.5 at each concentration of the compound from the S0.5 in the vehicle control. The ΔS0.5 is then normalized to a percent scale, where the S0.5 in the vehicle control is set to 0% and 0 mM glucose is set to 100%. The % ΔS0.5 is then plotted against the log of the compound concentration. The EC50 and Emax of % change in S0.5 is obtained from the sigmoidal fit of the data. Detailed protocol has been described in our copending application no. WO 2008/104994 which is incorporated herein by reference. Characterization data of some representative glucokinase activators of the present disclosure, which are illustrative but not limiting, are given in table 1 below.

As to `O=C(O)c1ccc(Oc2cnc(NC(=O)C(O[C@@H]3CCOC3)c3ccc(S(=O)(=O)C4CC4)cc3)s2)cc1` (single isomer, unassigned) [Example H9A], the EC50 was found to be 22 nM.
On to `O=C(Nc1ncc(Oc2ccc(C(=O)N3CCC3)cc2)s1)C(Oc1ccc(F)cc1F)c1ccc(S(=O)(=O)C2CC2)cc1` (single isomer, unassigned; (+)) [Example H6A, (+)N-{5-[4-(Azetidine-1-carbonyl)-phenoxy]-thiazol-2-yl}-2-(4-cyclopropanesulfonyl-phenyl)-2-(2,4-difluoro-phenoxy)-acetamide], for which the EC50 was determined as 110 nM and the Emax was determined as 93%.
The matching figures for `O=C(O)Cc1nc(NC(=O)C(Oc2ccc(F)cc2F)c2ccc(S(=O)(=O)N3CCCCC3)cc2)sc1Cl` (single isomer, unassigned; (-)) [Example H3A, (−) (5-Chloro-2-{2-(2,4-difluoro-phenoxy)-2-[4-(piperidine-1-sulfonyl)-phenyl]-acetylamino}-thiazol-4-yl)-acetic acid]: 430 nM and 90%.
For `O=C(Nc1ncc(Cl)s1)C(Oc1ccc(F)cc1F)c1ccc(S(=O)(=O)C2CC2)cc1` (stereo not shown) [Example A2, N-(5-Chlorothiazol-2-yl)-2-(4-cyclopropanesulfonylphenyl)-2-(2,4-difluorophenoxy)acetamide], the EC50 was 130 nM and the Emax was found to be 95%.
For the compound `O=C(Nc1ncc(F)s1)C(Oc1ccc(F)cc1F)c1ccc(S(=O)(=O)C2CCCC2)cc1` (stereo not shown) [Example A11, 2-(4-Cyclopentanesulfonylphenyl)-2-(2,4-difluorophenoxy)-N-(5-fluoro-thiazol-2-yl)acetamide], the EC50 was 110 nM and the Emax turned out to be 95%.
For `O=C(Nc1nccs1)C(Oc1ccc(Cl)cc1)c1ccc(S(=O)(=O)C2CCCC2)cc1` (stereo not shown) [Example A12, 2-(4-Chlorophenoxy)-2-(4-cyclopentanesulfonylphenyl)-N-thiazol-2-yl-acetamide], the EC50 was 170 nM and the Emax was 90%.
As to `O=C(Nc1nncs1)C(Oc1ccc(F)cc1F)c1ccc(S(=O)(=O)C2CC2)cc1` (stereo not shown) [Example A16, 2-(4-Cyclopropanesulfonylphenyl)-2-(2,4-difluorophenoxy)-N-[1,3,4]thiadiazol-2-yl-acetamide], the EC50 is 7100 nM and the Emax was determined as 90%.
The matching figures for `O=C(Nc1nncs1)C(Oc1ccc(F)cc1F)c1ccc(S(=O)(=O)C2CCCC2)cc1` (stereo not shown) [Example A27, 2-(4-Cyclopentanesulfonylphenyl)-2-(2,4-difluorophenoxy)-N-[1,3,4]thiadiazol-2-yl-acetamide]: 1270 nM and 90%.
Take `O=C(Nc1ncc(F)s1)C(Oc1ccc2[nH]ccc2c1)c1ccc(S(=O)(=O)C2CC2)cc1` (stereo not shown) [Example A28, 2-(4-Cyclopropanesulfonylphenyl)-N-(5-fluorothiazol-2-yl)-2-(1H-indol-5-yloxy)acetamide]: the EC50 was determined as 640 nM and the Emax was found to be 90%.
The matching figures for `CC(=O)Nc1cccc(OC(C(=O)Nc2ncc(F)s2)c2ccc(S(=O)(=O)C3CC3)cc2)c1` (stereo not shown) [Example A29, 2-(3-Acetylaminophenoxy)-2-(4-cyclopropanesulfonylphenyl)-N-(5-fluoro-thiazol-2-yl)acetamide]: 590 nM and 90%.
The matching figures for `O=C(Nc1ncc(F)s1)C(Oc1ccc(F)cc1F)c1ccc(S(=O)(=O)C2CCCC2)c(Cl)c1` (stereo not shown) [Example A36, 2-(3-Chloro-4-cyclopentanesulfonylphenyl)-2-(2,4-difluorophenoxy)-N-(5-fluoro-thiazol-2-yl)acetamide]: 110 nM and 95%.
`O=C(Nc1cc[nH]n1)C(Oc1ccc(F)cc1F)c1ccc(S(=O)(=O)C2CCCC2)c(Cl)c1` (stereo not shown) [Example A37, 2-(3-Chloro-4-cyclopentanesulfonylphenyl)-2-(2,4-difluorophenoxy)-N-(1H-pyrazol-3-yl)acetamide]: the EC50 turned out to be 2000 nM and the Emax amounted to 90%.
On the same counts, the results for `Cn1ccc(NC(=O)C(Oc2ccc(F)cc2F)c2ccc(S(=O)(=O)C3CCCC3)cc2)n1` (stereo not shown) [Example A38, 2-(4-Cyclopentanesulfonylphenyl)-2-(2,4-difluorophenoxy)-N-(1-methyl-1H-pyrazol-3-yl)acetamide] are 390 nM and 95%.
In the case of `O=C(Nc1ccc(Cl)cn1)C(Oc1ccc(Cl)cc1F)c1ccc(S(=O)(=O)C2CC2)cc1` (stereo not shown) [Example A41, 2-(4-Chloro-2-fluorophenoxy)-N-(5-chloropyridin-2-yl)-2-(4-cyclopropanesulfonylphenyl)-acetamide], the EC50 was found to be 460 nM and the Emax is 90%.
On the same counts, the results for `O=C(Nc1ncc(F)s1)C(Oc1ccc(Cl)cc1F)c1ccc(S(=O)(=O)C2CC2)cc1` (stereo not shown) [Example A42, 2-(4-Chloro-2-fluorophenoxy)-2-(4-cyclopropanesulfonylphenyl)-N-(5-fluorothiazol-2-yl)acetamide] are 120 nM and 95%.
The matching figures for `Cc1cnc(NC(=O)C(Oc2ccc(Cl)cc2F)c2ccc(S(=O)(=O)C3CC3)cc2)s1` (stereo not shown) [Example A43, 2-(4-Chloro-2-fluorophenoxy)-2-(4-cyclopropanesulfonylphenyl)-N-(5-methylthiazol-2-yl)acetamide]: 150 nM and 95%.
The matching figures for `O=C(Nc1cc[nH]n1)C(Oc1ccc(Cl)cc1F)c1ccc(S(=O)(=O)C2CC2)cc1` (stereo not shown) [Example A45, 2-(4-Chloro-2-fluorophenoxy)-2-(4-cyclopropanesulfonylphenyl)-N-(1H-pyrazol-3-yl)acetamide]: 1300 nM and 90%.
Turning to `Cn1ccc(NC(=O)C(Oc2ccc(Cl)cc2F)c2ccc(S(=O)(=O)C3CC3)cc2)n1` (stereo not shown) [Example A46, 2-(4-Chloro-2-fluorophenoxy)-2-(4-cyclopropanesulfonylphenyl)-N-(1-methyl-1H-pyrazol-3-yl)acetamide], the EC50 stood at 1370 nM and the Emax turned out to be 90%.
With `O=C(Nc1cnccn1)C(Oc1ccc(Cl)cc1F)c1ccc(S(=O)(=O)C2CC2)cc1` (stereo not shown) [Example A47, 2-(4-Chloro-2-fluorophenoxy)-2-(4-cyclopropanesulfonylphenyl)-N-pyrazin-2-yl-acetamide], the EC50 is 1200 nM and the Emax was determined as 90%.
Regarding `CC(C)Oc1ccc2nc(NC(=O)C(OC3CCOCC3)c3ccc(S(=O)(=O)C4CC4)cc3)sc2n1` (stereo not shown) [Example A82, 2-(4-Cyclopropanesulfonyl-phenyl)-N-(5-isopropoxy-thiazolo[5,4-b]pyridin-2-yl)-2-(tetrahydro-pyran-4-yloxy)-acetamide], the EC50 was 240 nM and the Emax is 94%.
In the case of `O=C(Nc1ncc(F)s1)C(OC1CCOCC1)c1ccc(S(=O)(=O)C2CC2)cc1` (stereo not shown) [Example A114, 2-(4-Cyclopropanesulfonyl-phenyl)-N-(5-fluoro-thiazol-2-yl)-2-(tetrahydro-pyran-4-yloxy)-acetamide], the EC50 turned out to be 150 nM and the Emax was found to be 92%.
On the same counts, the results for `N#Cc1ccc(Oc2cnc(NC(=O)C(OC3CCOCC3)c3ccc(S(=O)(=O)C4CC4)cc3)s2)cc1` (stereo not shown) [Example A117, N-[5-(4-Cyano-phenoxy)-thiazol-2-yl]-2-(4-cyclopropanesulfonyl-phenyl)-2-(tetrahydro-pyran-4-yloxy)-acetamide] are 150 nM and 92%.
